Experimental data taken from PubChem BioAssay AID180 (DTP/NCI, 2004).
Values joined by “and” are separate entries in the source; they are usually repeats but may differ in a detail not shown here. Equal entries are not always repeated.

System: BDF1 mice, Adenocarcinoma 755 s.c., tumor weight T/C
Assay: NCI In Vivo Anticancer Drug Screen. Data for tumor model Adenocarcinoma 755 (subcutaneous) in B6D2F1 (BDF1) mice
Settings: endpoint: mean tumor weight, higher = larger tumour
Description: The antitumor activity of compounds was measured in mice bearing transplantable tumors. Survival or tumor size were measured and the results are expressed as the measurement made in the treated group (T) divided by the measurement made in the vehicle treated control group (C). The tumor model used in this assay is Adenocarcinoma 755 (subcutaneous) in B6D2F1 (BDF1) mice

[1] = dose: 5.0 mg/kg/injection, schedule: Q01DX011 (ip), vehicle: saline
[2] = dose: 10.0 mg/kg/injection, schedule: Q01DX011 (ip), vehicle: saline

In the case of `Cn1cnc([N+](=O)[O-])c1Sc1nc(N)nc2nc[nH]c12`, the T/C (dose: 0.04 mg/kg/injection, schedule: Q01DX011 (ip), vehicle: alkali diluted with saline) was 76 % of control, the T/C (dose: 0.07 mg/kg/injection, schedule: Q01DX011 (ip), vehicle: methylcellulose (MC)) was 84 % of control and the T/C (dose: 0.08 mg/kg/injection, schedule: Q01DX011 (ip), vehicle: alkali diluted with saline) was 72 % of control. For the same compound, the T/C (dose: 0.13 mg/kg/injection, schedule: Q01DX011 (ip), vehicle: methylcellulose (MC)) was 86 % of control, the T/C (dose: 0.16 mg/kg/injection, schedule: Q01DX011 (ip), vehicle: alkali diluted with saline) was 102 % of control and the T/C (dose: 0.2 mg/kg/injection, schedule: Q01DX011 (ip), vehicle: methylcellulose (MC)) was 30 % of control. For the same compound, the T/C (dose: 0.25 mg/kg/injection, schedule: Q01DX011 (ip), vehicle: distilled water + alcohol) was 29 % of control, the T/C (dose: 0.25 mg/kg/injection, schedule: Q01DX011 (ip), vehicle: methylcellulose (MC)) was 65 % of control and the T/C (dose: 0.32 mg/kg/injection, schedule: Q01DX011 (ip), vehicle: alkali diluted with saline) was 82 % of control. The T/C (dose: 0.32 mg/kg/injection, schedule: Q01DX011 (ip), vehicle: saline) was 102 % of control, the T/C (dose: 0.39 mg/kg/injection, schedule: Q01DX011 (ip), vehicle: methylcellulose (MC)) was 8 % of control and the T/C (dose: 0.52 mg/kg/injection, schedule: Q01DX011 (ip), vehicle: distilled water + alcohol) was 18 % of control. For the same compound, the T/C (dose: 0.62 mg/kg/injection, schedule: Q01DX011 (oral), vehicle: saline) was 89 % of control, the T/C (dose: 0.63 mg/kg/injection, schedule: Q01DX011 (ip), vehicle: alkali diluted with saline) was 41 % of control and the T/C (dose: 0.63 mg/kg/injection, schedule: Q01DX011 (ip), vehicle: saline) was 46 % of control. The T/C (dose: 0.78 mg/kg/injection, schedule: Q01DX011 (ip), vehicle: methylcellulose (MC)) was 7 % of control, the T/C (dose: 1.0 mg/kg/injection, schedule: Q01DX011 (ip), vehicle: methylcellulose (MC)) was 27 % of control and the T/C (dose: 1.05 mg/kg/injection, schedule: Q01DX011 (ip), vehicle: distilled water + alcohol) was 5 % of control. For the same compound, the T/C (dose: 1.25 mg/kg/injection, schedule: Q01DX011 (ip), vehicle: alkali diluted with saline) was 2 % of control, the T/C (dose: 1.25 mg/kg/injection, schedule: Q01DX011 (ip), vehicle: saline) was 4 % of control and the T/C (dose: 1.25 mg/kg/injection, schedule: Q01DX011 (oral), vehicle: saline) was 36 % of control. The T/C (dose: 1.56 mg/kg/injection, schedule: Q01DX011 (ip), vehicle: methylcellulose (MC)) was 5 % of control, the T/C (dose: 2.08 mg/kg/injection, schedule: Q01DX011 (ip), vehicle: distilled water + alcohol) was 6 % of control and the T/C (dose: 2.5 mg/kg/injection, schedule: Q01DX011 (ip), vehicle: alkali diluted with saline) was 1 % of control. For the same compound, the T/C (dose: 2.5 mg/kg/injection, schedule: Q01DX011 (ip), vehicle: methylcellulose (MC)) was 4 % of control, the T/C (dose: 2.5 mg/kg/injection, schedule: Q01DX011 (ip), vehicle: saline) was 3 % of control and the T/C (dose: 2.5 mg/kg/injection, schedule: Q01DX011 (oral), vehicle: saline) was 8 % of control. The T/C (dose: 3.12 mg/kg/injection, schedule: Q01DX011 (ip), vehicle: methylcellulose (MC)) was 2 % of control, the T/C (dose: 4.19 mg/kg/injection, schedule: Q01DX011 (ip), vehicle: distilled water + alcohol) was 2 % of control and the T/C [1] was 1 % of control. For the same compound, the T/C (dose: 5.0 mg/kg/injection, schedule: Q01DX011 (oral), vehicle: saline) was 5 % of control, the T/C (dose: 6.25 mg/kg/injection, schedule: Q01DX011 (ip), vehicle: methylcellulose (MC)) was 2 % of control and the T/C [2] was 1 % of control. The T/C (dose: 12.5 mg/kg/injection, schedule: Q01DX011 (ip), vehicle: methylcellulose (MC)) was 1 % of control.

In the case of `FC(F)(F)c1nc(=S)c2[nH]cnc2[nH]1`, the T/C (dose: 6.0 mg/kg/injection, schedule: Q01DX011 (ip), vehicle: carboxymethylcellulose (CMC)) was 70 % of control, the T/C (dose: 25.0 mg/kg/injection, schedule: Q01DX011 (ip), vehicle: carboxymethylcellulose (CMC)) was 81 % of control and the T/C (dose: 100.0 mg/kg/injection, schedule: Q01DX011 (ip), vehicle: carboxymethylcellulose (CMC)) was 89 % of control.

With `CC12CCC3C(CCC4CC=CCC43C)C1CCC2=O` (stereo not drawn) the T/C (dose: 62.55 mg/kg/injection, schedule: Q01DX011 (sc), vehicle: steriod suspending solution) was 90 % of control, the T/C (dose: 125.0 mg/kg/injection, schedule: Q01DX011 (sc), vehicle: steriod suspending solution) was 99 % of control and the T/C (dose: 250.0 mg/kg/injection, schedule: Q01DX011 (sc), vehicle: steriod suspending solution) was 60 % of control. For the same compound, the T/C (dose: 500.0 mg/kg/injection, schedule: Q01DX011 (sc), vehicle: steriod suspending solution) was 84 % of control.

`Cc1ccccc1CNc1ncnc2[nH]ncc12` was tested, and the T/C [1] was 79 % of control, the T/C [2] was 60 % of control and the T/C (dose: 25.0 mg/kg/injection, schedule: Q01DX011 (ip), vehicle: saline) was 29 % of control. For the same compound, the T/C (dose: 100.0 mg/kg/injection, schedule: Q01DX011 (ip), vehicle: saline) was 4 % of control and the T/C (dose: 125.0 mg/kg/injection, schedule: Q01DX011 (ip), vehicle: saline) was 9 % of control.

`CC1=CCN2CCC(O)C12` (stereo not drawn) was tested, and the T/C (dose: 38.0 mg/kg/injection, schedule: Q01DX011 (ip), vehicle: carboxymethylcellulose (CMC)) was 95 % of control and the T/C (dose: 150.0 mg/kg/injection, schedule: Q01DX011 (ip), vehicle: carboxymethylcellulose (CMC)) was 75 % of control.

With `[I][Hg][CH2]C1COCC([CH2][Hg][I])O1.[I][Hg][CH2]C1COCC([CH2][Hg][I])O1` (stereo not drawn) the T/C (dose: 10.0 mg/kg/injection, schedule: Q01DX011 (ip), vehicle: other) was 59 % of control, the T/C (dose: 20.0 mg/kg/injection, schedule: Q01DX011 (ip), vehicle: other) was 63 % of control and the T/C (dose: 40.0 mg/kg/injection, schedule: Q01DX011 (ip), vehicle: other) was 31 % of control.

For `CCC1CN1P(=S)(N1CC1CC)N1CC1CC` (stereo not drawn), the T/C (dose: 28.0 mg/kg/injection, schedule: Q01DX011 (ip), vehicle: saline) was 104 % of control, the T/C (dose: 56.0 mg/kg/injection, schedule: Q01DX011 (ip), vehicle: saline) was 28 % of control and the T/C (dose: 113.0 mg/kg/injection, schedule: Q01DX011 (ip), vehicle: saline) was 8 % of control.

In the case of `CCCCn1cnc2c(SCCc3ccccc3)nc(N)nc21`, the T/C (dose: 50.0 mg/kg/injection, schedule: Q01DX011 (ip), vehicle: methylcellulose (MC)) was 37 % of control, the T/C (dose: 100.0 mg/kg/injection, schedule: Q01DX011 (ip), vehicle: methylcellulose (MC)) was 42 % of control and the T/C (dose: 200.0 mg/kg/injection, schedule: Q01DX011 (ip), vehicle: methylcellulose (MC)) was 26 % of control.

For `CN1CC(=O)N=C1N`, the T/C (dose: 250.0 mg/kg/injection, schedule: Q#A X022 (ip), vehicle: water) was 47 % of control, the T/C (dose: 375.0 mg/kg/injection, schedule: Q#A X022 (ip), vehicle: water) was 88 % of control and the T/C (dose: 500.0 mg/kg/injection, schedule: Q#A X022 (ip), vehicle: water) was 36 % of control. For the same compound, the T/C (dose: 750.0 mg/kg/injection, schedule: Q#A X022 (ip), vehicle: water) was 67 % of control, the T/C (dose: 1250.0 mg/kg/injection, schedule: Q#A X022 (ip), vehicle: water) was 72 % of control and the T/C (dose: 1500.0 mg/kg/injection, schedule: Q#A X022 (ip), vehicle: water) was 68 % of control.

For `Cn1cnc([N+](=O)[O-])c1Sc1nc(N)nc2c1ncn2C1OC(CO)C(O)C1O` (stereo not drawn), the T/C (dose: 0.03 mg/kg/injection, schedule: Q01DX011 (ip), vehicle: methylcellulose (MC)) was 89 % of control, the T/C (dose: 0.06 mg/kg/injection, schedule: Q01DX011 (ip), vehicle: methylcellulose (MC)) was 76 % of control and the T/C (dose: 0.11 mg/kg/injection, schedule: Q01DX011 (ip), vehicle: methylcellulose (MC)) was 14 % of control. For the same compound, the T/C (dose: 0.22 mg/kg/injection, schedule: Q01DX011 (ip), vehicle: methylcellulose (MC)) was 1 % of control and 2 % of control, the T/C (dose: 0.44 mg/kg/injection, schedule: Q01DX011 (ip), vehicle: methylcellulose (MC)) was 2 % of control and the T/C (dose: 0.88 mg/kg/injection, schedule: Q01DX011 (ip), vehicle: methylcellulose (MC)) was 1 % of control. The T/C (dose: 1.75 mg/kg/injection, schedule: Q01DX011 (ip), vehicle: methylcellulose (MC)) was 2 % of control.

In the case of `Nc1nc(SCc2ccc([N+](=O)[O-])cc2)c2[nH]cnc2n1`, the T/C (dose: 600.0 mg/kg/injection, schedule: Q01DX011 (ip), vehicle: carboxymethylcellulose (CMC)) was 10 % of control, the T/C (dose: 750.0 mg/kg/injection, schedule: Q01DX011 (ip), vehicle: carboxymethylcellulose (CMC)) was 10 % of control and the T/C (dose: 800.0 mg/kg/injection, schedule: Q01DX011 (ip), vehicle: carboxymethylcellulose (CMC)) was 8 % of control. The T/C (dose: 900.0 mg/kg/injection, schedule: Q01DX011 (ip), vehicle: carboxymethylcellulose (CMC)) was 1 % of control and 5 % of control and the T/C (dose: 1000.0 mg/kg/injection, schedule: Q01DX011 (ip), vehicle: carboxymethylcellulose (CMC)) was 6 % of control.

In the case of `CC(=O)OCC1OC(n2cnc3c(N)ncnc32)CC1OC(C)=O` (stereo not drawn), the T/C (dose: 30.0 mg/kg/injection, schedule: Q01DX011 (ip), vehicle: carboxymethylcellulose (CMC)) was 55 % of control and 68 % of control, the T/C (dose: 120.0 mg/kg/injection, schedule: Q01DX011 (ip), vehicle: carboxymethylcellulose (CMC)) was 97 % of control and 111 % of control and the T/C (dose: 240.0 mg/kg/injection, schedule: Q01DX011 (ip), vehicle: carboxymethylcellulose (CMC)) was 108 % of control and 109 % of control.
